Experimental data: PubChem BioAssay AID330 (DTP/NCI, 2004)
Where “and” joins values, the source holds several entries; their conditions need not be identical. Equal values may be shown once. Inconclusive results and toxic doses are left out. Rule for the calls: active = survival T/C of 150% or more; inactive = T/C below 125% in these data.

Test system: P388 leukemia ip, CD2F1 mice, survival T/C
Assay: NCI In Vivo Anticancer Drug Screen. Data for tumor model P388 Leukemia (intraperitoneal) in CD2F1 (CDF1) mice
Conditions: endpoint: median survival time, higher = longer survival
Procedure, shortened: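 Mice carrying the transplanted tumor received test compound or vehicle. Survival was recorded in each group, and the value is the treated-group measurement divided by that of the vehicle-treated control group.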

[1] = dose: 50.0 mg/kg/injection, schedule: Q01DX009 (ip), vehicle: other
[2] = dose: 100.0 mg/kg/injection, schedule: Q01DX009 (ip), vehicle: other
[3] = dose: 200.0 mg/kg/injection, schedule: Q01DX009 (ip), vehicle: other
[4] = dose: 25.0 mg/kg/injection, schedule: Q01DX009 (ip), vehicle: saline with Tween-80
[5] = dose: 50.0 mg/kg/injection, schedule: Q01DX009 (ip), vehicle: saline with Tween-80
[6] = dose: 100.0 mg/kg/injection, schedule: Q01DX009 (ip), vehicle: saline with Tween-80
[7] = dose: 200.0 mg/kg/injection, schedule: Q01DX009 (ip), vehicle: saline with Tween-80
[8] = dose: 400.0 mg/kg/injection, schedule: Q01DX009 (ip), vehicle: saline with Tween-80
[9] = dose: 50.0 mg/kg/injection, schedule: Q01DX005 (ip), vehicle: saline with Tween-80
[10] = dose: 100.0 mg/kg/injection, schedule: Q01DX005 (ip), vehicle: saline with Tween-80
[11] = dose: 60.0 mg/kg/injection, schedule: Q01DX005 (ip), vehicle: saline with Tween-80
[12] = dose: 120.0 mg/kg/injection, schedule: Q01DX005 (ip), vehicle: saline with Tween-80
[13] = dose: 240.0 mg/kg/injection, schedule: Q01DX005 (ip), vehicle: saline with Tween-80
[14] = dose: 50.0 mg/kg/injection, schedule: Q01DX009 (ip), vehicle: Klucel (hydroxypropylcellulose) (HPC)
[15] = dose: 100.0 mg/kg/injection, schedule: Q01DX009 (ip), vehicle: Klucel (hydroxypropylcellulose) (HPC)
[16] = dose: 200.0 mg/kg/injection, schedule: Q01DX009 (ip), vehicle: Klucel (hydroxypropylcellulose) (HPC)
[17] = dose: 50.0 mg/kg/injection, schedule: Q01DX005 (ip), vehicle: saline
[18] = dose: 100.0 mg/kg/injection, schedule: Q01DX005 (ip), vehicle: saline
[19] = dose: 200.0 mg/kg/injection, schedule: Q01DX005 (ip), vehicle: saline

Measured: T/C

CCCCN1CSC(=S)N(Cc2ccccc2)C1
inactive: [1] 115 % of control | [2] 108 % of control | [3] 92 % of control

COC(=O)/C(=C/c1ccc(/C=C(/C(=O)O)c2ccc(OC)cc2)o1)c1ccc(OC)cc1
inactive: dose: 100.0 mg/kg/injection, schedule: Q04DX002 (ip), vehicle: saline with Tween-80 96 % of control | dose: 200.0 mg/kg/injection, schedule: Q04DX002 (ip), vehicle: saline with Tween-80 92 % of control | dose: 400.0 mg/kg/injection, schedule: Q04DX002 (ip), vehicle: saline with Tween-80 101 % of control

C=C1C(=O)OC2C1C(OC(=O)/C(C)=C/C)CC(O)(CCl)C1C(OC(C)=O)C=C(C)C21O (centres undefined)
inactive: [4] 117 % of control | [5] 109 % of control | [6] 114 % of control | [7] 108 % of control

Cc1coc2c1C(=O)C(=O)c1c-2ccc2c1CCCC2(C)CO (centres undefined) (tested in a mixture with another compound)
inactive: [6] 95 % of control | [8] 90 % of control

COc1ccc(Cc2cc3c(cc2OCCO)OCO3)cc1
inactive: [9] 105 % of control | [10] 103 % of control | dose: 200.0 mg/kg/injection, schedule: Q01DX005 (ip), vehicle: saline with Tween-80 109 % of control

CSc1nc(NC2OCC(OC(C)=O)C(OC(C)=O)C2OC(C)=O)c(N=C(C)C(C)=O)c(=O)n1C (centres undefined)
inactive: [11] 100 % of control | [12] 87 % of control

O=[N+]([O-])c1ccc(NN=NCCCl)cc1
inactive: dose: 12.5 mg/kg/injection, schedule: Q01DX009 (ip), vehicle: distilled water + Tween-80 109 % of control

CCCCOc1ccc(Nc2c(C(=O)O)cnc3cc4c(cc23)OCO4)cc1
inactive: dose: 60.0 mg/kg/injection, schedule: Q01DX005 (ip), vehicle: Klucel (hydroxypropylcellulose) (HPC) 100 % of control | dose: 120.0 mg/kg/injection, schedule: Q01DX005 (ip), vehicle: Klucel (hydroxypropylcellulose) (HPC) 91 % of control | dose: 240.0 mg/kg/injection, schedule: Q01DX005 (ip), vehicle: Klucel (hydroxypropylcellulose) (HPC) 97 % of control

N#Cc1ccc(OCCCCCOc2ccc(C#N)cc2)cc1
inactive: [4] 108 % of control | [5] 100 % of control | [6] 97 % of control | [7] 99 % of control

[O-][n+]1cnn2ccccc21
inactive: [11] 100 % of control | [12] 106 % of control | [13] 102 % of control

Cc1ccc2nc(N/N=C/c3cccnc3)sc2c1
inactive: [14] 105 % of control | [15] 100 % of control | [16] 96 % of control

COP(=O)(OC)/C(C)=N/NS(=O)(=O)c1ccc(C)cc1
inactive: dose: 12.5 mg/kg/injection, schedule: Q01DX009 (ip), vehicle: other 91 % of control | dose: 25.0 mg/kg/injection, schedule: Q01DX009 (ip), vehicle: other 91 % of control | [1] 99 % of control | [2] 100 % of control | [3] 98 % of control | dose: 400.0 mg/kg/injection, schedule: Q01DX009 (ip), vehicle: other 94 % of control

N#CCCSC(=S)N1CCCCC1
inactive: dose: 25.0 mg/kg/injection, schedule: Q01DX009 (ip), vehicle: Klucel (hydroxypropylcellulose) (HPC) 104 % of control | [14] 104 % of control and 87 % of control | [15] 98 % of control and 101 % of control | [16] 90 % of control and 93 % of control | dose: 400.0 mg/kg/injection, schedule: Q01DX009 (ip), vehicle: Klucel (hydroxypropylcellulose) (HPC) 101 % of control

COC(=O)[C@]1(O)Cc2c(O)c3c(c(O)c2[C@@H](OC2CC(N)C(O)C(C)O2)C1)C(=O)c1c(OC)cccc1C3=O (some centres undefined)
inactive: dose: 1.56 mg/kg/injection, schedule: Q01DX009 (ip), vehicle: water 110 % of control | dose: 3.13 mg/kg/injection, schedule: Q01DX009 (ip), vehicle: water 108 % of control | dose: 6.25 mg/kg/injection, schedule: Q01DX009 (ip), vehicle: water 109 % of control and 114 % of control | dose: 12.5 mg/kg/injection, schedule: Q01DX009 (ip), vehicle: water 116 % of control and 118 % of control | dose: 25.0 mg/kg/injection, schedule: Q01DX009 (ip), vehicle: water 116 % of control

CC1OC(=O)C(C2OC2C)=CC1O (centres undefined)
inactive: [17] 97 % of control | [18] 105 % of control | [19] 105 % of control

O=C(NC(c1ccccc1)c1ccccc1)OCc1c2ccccc2cc2ccccc12
inactive: [14] 88 % of control | [15] 100 % of control | [16] 100 % of control

CN(C)/C=N/c1c(CO)c(-c2ccccc2)nn1-c1ccccc1
inactive: [5] 104 % of control | [6] 100 % of control | [7] 104 % of control | [8] 105 % of control

O=[N+]([O-])c1ccc(OP(=O)(Oc2ccc([N+](=O)[O-])cc2)N(CCCl)CCCl)cc1
inactive: dose: 18.8 mg/kg/injection, schedule: Q01DX001 (ip), vehicle: other 108 % of control | dose: 37.5 mg/kg/injection, schedule: Q01DX001 (ip), vehicle: other 112 % of control | dose: 75.0 mg/kg/injection, schedule: Q01DX001 (ip), vehicle: other 113 % of control | dose: 150.0 mg/kg/injection, schedule: Q01DX001 (ip), vehicle: other 115 % of control | dose: 300.0 mg/kg/injection, schedule: Q01DX001 (ip), vehicle: other 99 % of control

CN1C(=O)N(C)C2(C=Cc3ccccc3O2)N(C)C1=O
inactive: dose: 50.0 mg/kg/injection, schedule: Q04DX003 (ip), vehicle: saline with Tween-80 92 % of control | dose: 100.0 mg/kg/injection, schedule: Q04DX003 (ip), vehicle: saline with Tween-80 98 % of control | dose: 200.0 mg/kg/injection, schedule: Q04DX003 (ip), vehicle: saline with Tween-80 92 % of control

O=C(Cc1nc2ccccc2[nH]c1=O)N/N=C/c1ccc2c(c1)CCC2
inactive: [11] 92 % of control and 95 % of control | [12] 100 % of control | [13] 89 % of control

CCC(=N/NC(=S)NCCN1CCCCC1)/C(CC)=N\NC(=S)NCCN1CCCCC1
inactive: dose: 3.13 mg/kg/injection, schedule: Q01DX009 (ip), vehicle: saline with Tween-80 100 % of control | dose: 6.25 mg/kg/injection, schedule: Q01DX009 (ip), vehicle: saline with Tween-80 103 % of control

Cn1cccc1/C=N/N1CC(=O)N(c2cccc(Cl)c2)CC1=O
inactive: [9] 100 % of control | [10] 97 % of control

Cc1ccc(NC(=O)NCc2ccco2)cc1[N+](=O)[O-]
inactive: dose: 50.0 mg/kg/injection, schedule: Q01DX005 (ip), vehicle: Klucel (hydroxypropylcellulose) (HPC) 96 % of control | dose: 100.0 mg/kg/injection, schedule: Q01DX005 (ip), vehicle: Klucel (hydroxypropylcellulose) (HPC) 96 % of control | dose: 200.0 mg/kg/injection, schedule: Q01DX005 (ip), vehicle: Klucel (hydroxypropylcellulose) (HPC) 89 % of control

CCN(CC)C1CC(=O)C2(C)C3CCC4(C)C(C(C)C5CC(C)=C(CO)C(=O)O5)CCC4C3CC3OC32C1O (centres undefined)
inactive: dose: 4.5 mg/kg/injection, schedule: Q01DX005 (ip), vehicle: Klucel (hydroxypropylcellulose) (HPC) 98 % of control | dose: 9.0 mg/kg/injection, schedule: Q01DX005 (ip), vehicle: Klucel (hydroxypropylcellulose) (HPC) 93 % of control | dose: 18.0 mg/kg/injection, schedule: Q01DX005 (ip), vehicle: Klucel (hydroxypropylcellulose) (HPC) 100 % of control | dose: 36.0 mg/kg/injection, schedule: Q01DX005 (ip), vehicle: Klucel (hydroxypropylcellulose) (HPC) 98 % of control | dose: 72.0 mg/kg/injection, schedule: Q01DX005 (ip), vehicle: Klucel (hydroxypropylcellulose) (HPC) 100 % of control

COC(C)C(NC=O)C(=O)O (centres undefined)
inactive: [17] 100 % of control and 99 % of control | [18] 96 % of control and 98 % of control | [19] 100 % of control and 91 % of control

Cc1cc2n(n1)C(=O)CC(=O)C2
inactive: [11] 98 % of control | [12] 100 % of control | [13] 109 % of control

CC(C)(C(=O)O)n1c(-c2ccccc2)c(-c2ccccc2)oc1=O
inactive: dose: 8.75 mg/kg/injection, schedule: Q01DX005 (ip), vehicle: Klucel (hydroxypropylcellulose) (HPC) 106 % of control | dose: 17.5 mg/kg/injection, schedule: Q01DX005 (ip), vehicle: Klucel (hydroxypropylcellulose) (HPC) 106 % of control | dose: 35.0 mg/kg/injection, schedule: Q01DX005 (ip), vehicle: Klucel (hydroxypropylcellulose) (HPC) 106 % of control
